# Reference: DBAASP
# Legend:
# Test in all cases: ≥ marks a high value that may be exact or a test limit, other limits are often not marked, values filed in µg/mL are converted to µM
# [1] = system: Acinetobacter baumannii ATCC 19606
# Escherichia coli D31 = system: Escherichia coli D31
# [2] = system: Pseudomonas aeruginosa ATCC 10145
# [3] = system: Staphylococcus aureus ATCC 27660
# [4] = system: Aspergillus oryzae NBRC 100959
# [5] = system: Candida viswanathii NBRC 10321
# [6] = system: Escherichia coli NBRC 3972
# [7] = system: Micrococcus luteus NBRC 3333
# [8] = system: Staphylococcus epidermidis NBRC 12993
# [9] = system: Pseudomonas aeruginosa 253
# [10] = system: Pseudomonas aeruginosa 910
# [11] = system: Pseudomonas aeruginosa 919
# [12] = system: Pseudomonas aeruginosa PAO1
# [13] = system: Bacillus subtilis DSM 347
# [14] = system: Escherichia coli DSM 1116
# [15] = system: Franconibacter helveticus DSM 18390
# [16] = system: Staphylococcus xylosus DSM 20267
# [17] = system: Klebsiella pneumoniae E406-17
# [18] = system: Pseudomonas aeruginosa E411-17
# [19] = system: Staphylococcus aureus M838-17
structure (smiles),measurement,setting,value
C[C@H](N)C(=O)N[C@@H](C)C(=O)N[C@@H](Cc1c[nH]c2ccccc12)C(=O)N[C@@H](CCCCN)C(=O)N[C@@H](CCCCN)C(=O)N[C@@H](C)C(=O)N[C@@H](C)C(=O)N[C@@H](CCCCN)C(=O)N[C@@H](CCCCN)C(=O)N[C@@H](C)C(=O)N[C@@H](C)C(=O)N[C@@H](CCCCN)C(=O)N[C@@H](CO)C(=O)N[C@@H](C)C(=O)N[C@@H](CCCCN)C(=O)N[C@@H](CCCCN)C(=O)N[C@@H](C)C(=O)NCC(N)=O [AAWKKAAKKAAKSAKKAG],MIC,[1],> 15 µM
same,MIC,Escherichia coli D31,15 µM
same,MIC,[2],15 µM
same,MIC,[3],15 µM
CC[C@H](C)[C@H](NC(=O)[C@H](CCSC)NC(=O)[C@H](CCCN=C(N)N)NC(=O)[C@H](CCCN=C(N)N)NC(=O)[C@H](CC(C)C)NC(=O)[C@H](Cc1ccc(O)cc1)NC(=O)[C@H](CCCN=C(N)N)NC(=O)[C@H](CCCCN)NC(=O)[C@@H](NC(=O)[C@H](CCCCN)NC(=O)[C@@H](N)CCCN=C(N)N)[C@@H](C)CC)C(=O)N[C@@H](Cc1c[nH]c2ccccc12)C(=O)O [RKIKRYLRRMIW],MIC,[4],7.27 µM
same,MIC,[5],14.5 µM
same,MIC,[6],≥ 116 µM
same,MIC,[7],14.5 µM
same,MIC,[8],14.5 µM
CC[C@H](C)[C@H](NC(=O)[C@@H](N)Cc1ccccc1)C(=O)N[C@@H](CCCCN)C(=O)N[C@@H](CCCN=C(N)N)C(=O)N[C@@H](CCCCN)C(=O)N[C@@H](CO)C(=O)N[C@@H](CCCN=C(N)N)C(=O)N[C@@H](Cc1c[nH]c2ccccc12)C(=O)N[C@@H](Cc1c[nH]c2ccccc12)C(=O)N[C@@H](CCCCN)C(=O)N[C@@H](Cc1c[nH]c2ccccc12)C(=O)N[C@@H](CCCN=C(N)N)C(=O)N[C@H](C(N)=O)[C@@H](C)O [FIKRKSRWWKWRT],MIC,[9],11.3 µM
same,MIC,[10],8 µM
same,MIC,[11],≥ 32 µM
same,MIC,[12],4 µM
CC(C)C[C@H](NC(=O)[C@H](CCCCN)NC(=O)[C@H](CC(C)C)NC(=O)[C@H](CCCCN)NC(=O)[C@H](CC(C)C)NC(=O)[C@H](CCCCN)NC(=O)[C@H](CC(C)C)NC(=O)[C@H](CCCCN)NC(=O)[C@H](CC(C)C)NC(=O)[C@H](CCCCN)NC(=O)[C@H](CC(C)C)NC(=O)[C@H](CCCCN)NC(=O)[C@H](CC(C)C)NC(=O)[C@@H](N)CCCCN)C(N)=O [KLKLKLKLKLKLKL],MIC,[13],2.34 µM
same,MIC,[14],4.69 µM
same,MIC,[15],2.34 µM
same,MIC,[16],2.34 µM
CC(C)C[C@H](NC(=O)[C@H](Cc1c[nH]c2ccccc12)NC(=O)[C@H](Cc1c[nH]c2ccccc12)NC(=O)[C@H](Cc1c[nH]c2ccccc12)NC(=O)[C@H](CCCN=C(N)N)NC(=O)[C@H](CCCN=C(N)N)NC(=O)[C@H](CCCN=C(N)N)NC(=O)[C@@H](N)CCCN=C(N)N)C(N)=O [RRRRWWWL],MIC,[17],≥ 50 µM
same,MIC,[18],12.5 µM
same,MIC,[19],6.25 µM
